Read-outs that look alike come from different tables or passages of the source.
How the values were obtained:
KDR = biological target: T1, KDR (Homo sapiens, UniProt P35968); assay: (125I)-VEGF binding inhibition on NIH3T3 cells in which KDR was forced to be expressed; conditions: KDR-expressing NIH3T3 cells, (125I)-VEGF 25 pM, 90 minutes, read-out: IC50 (concentration of 50% binding inhibition)
T1 construct: expressed in transfected cells; host or cells: NIH3T3
Method: According to the method described in a document (Cell Growth & Differentiation, vol. 7, pp. 213-221, 1996), the following tests were carried out.
NIH3T3 cells in which Flt-1 was forced to be expressed were seeded on a 24-well collagen-coated plate (7×10^4/well), and were cultured in Dulbecco's modified Eagle's medium (DMEM) including 10% bovine serum and 200 μg/ml of Geneticin G418, for 24 hours at 37° C. under an atmosphere of 5% carbon dioxide gas. The cells were preincubated in Buffer A (including 10 mM HEPES (N-2-hydroxyethylpiperazine-N′-2-ethanesulfonic acid) and 0.1% BSA (bovine serum albumin) in DMEM), for 30 minutes at 4° C. Subsequently, the medium was replaced with Buffer B (including 10 mM HEPES and 0.5% BSA in DMEM). A test solution prepared by dissolving each of the test compounds shown in Table 19 in dimethylsulfoxide and subsequently diluting the solution into a prescribed concentration with Buffer B, and (^125I)-VEGF (the final concentration was set to 25 pM) were added thereto. Binding reaction was carried out for 90 minutes at […]. After completion of the reaction, the cells were washed three times with ice-cooled Buffer A. Subsequently, 0.5 ml of 0.5M NaOH were added to each well, and the cells were lysed in 30 minutes at room temperature. The radioactivity of the lysed cells in each well was measured by means of a gamma counter, and a total binding quantity of (^125I)-VEGF was calculated. Nonspecific binding quantity of (^125I)-VEGF was measured by competition assay in the presence of 10 nM non-labeled VEGF. The specific binding quantity of (^125I)-VEGF was calculated from the difference between the total binding quantity of (^125I)-VEGF and nonspecific binding quantity of (^125I)-VEGF.
The binding inhibition index of the test compounds was calculated by the following equation. [formula]
From this value, a concentration of 50% binding inhibition (IC50) of the test compound was calculated.
Test on each of the test compounds shown in Table 20 and Table 21 was carried out employing NIH3T3 cells in which KDR was forced to be expressed, in the same manner as described in Experimental Example 1 described above.

T1 sequence (P35968 20-1356): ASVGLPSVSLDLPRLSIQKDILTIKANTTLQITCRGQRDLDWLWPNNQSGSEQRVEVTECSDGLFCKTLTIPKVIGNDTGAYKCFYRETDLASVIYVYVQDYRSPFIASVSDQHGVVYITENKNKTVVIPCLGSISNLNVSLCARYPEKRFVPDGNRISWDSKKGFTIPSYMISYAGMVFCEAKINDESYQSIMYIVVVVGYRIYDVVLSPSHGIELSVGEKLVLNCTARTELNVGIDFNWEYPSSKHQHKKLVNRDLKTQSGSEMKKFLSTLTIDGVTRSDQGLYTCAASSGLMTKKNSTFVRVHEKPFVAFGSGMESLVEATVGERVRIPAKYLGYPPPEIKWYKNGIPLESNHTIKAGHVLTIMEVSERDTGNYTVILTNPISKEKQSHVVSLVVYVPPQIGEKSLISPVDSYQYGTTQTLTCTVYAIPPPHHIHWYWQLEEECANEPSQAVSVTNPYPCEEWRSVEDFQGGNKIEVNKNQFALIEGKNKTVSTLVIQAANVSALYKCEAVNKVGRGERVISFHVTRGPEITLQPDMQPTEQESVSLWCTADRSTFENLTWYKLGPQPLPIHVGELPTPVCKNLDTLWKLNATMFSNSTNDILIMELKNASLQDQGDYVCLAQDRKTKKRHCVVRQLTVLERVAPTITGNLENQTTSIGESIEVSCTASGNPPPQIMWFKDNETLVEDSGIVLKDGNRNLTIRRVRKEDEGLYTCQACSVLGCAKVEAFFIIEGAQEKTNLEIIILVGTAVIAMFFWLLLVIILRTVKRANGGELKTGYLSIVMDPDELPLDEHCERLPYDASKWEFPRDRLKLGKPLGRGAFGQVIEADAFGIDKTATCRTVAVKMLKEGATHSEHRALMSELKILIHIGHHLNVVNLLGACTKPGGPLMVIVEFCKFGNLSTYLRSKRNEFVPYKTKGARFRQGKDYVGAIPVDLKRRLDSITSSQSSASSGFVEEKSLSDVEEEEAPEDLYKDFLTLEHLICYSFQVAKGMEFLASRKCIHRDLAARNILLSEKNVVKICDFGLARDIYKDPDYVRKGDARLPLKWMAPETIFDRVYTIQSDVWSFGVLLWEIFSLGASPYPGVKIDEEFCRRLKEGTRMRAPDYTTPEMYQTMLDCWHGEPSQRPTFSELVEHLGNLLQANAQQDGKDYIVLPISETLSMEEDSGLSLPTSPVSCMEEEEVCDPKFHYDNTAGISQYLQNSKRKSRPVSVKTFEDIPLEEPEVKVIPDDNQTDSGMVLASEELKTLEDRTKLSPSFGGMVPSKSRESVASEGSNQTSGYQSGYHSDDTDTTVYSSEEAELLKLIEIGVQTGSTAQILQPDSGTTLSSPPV

CCCCCCCCCCCCCCCCCC(=O)Nc1ccc(CCC(=O)Nc2ccc(SC)c(C(=O)O)c2)cc1 [Compound 120]
IC50 (KDR; Table 21): 440 nM
melting point: 257 to 260 °C

CCCCCCCCCCCCCCCCCCOc1ccc(CC(=O)Nc2ccc(SCC)c(C(=O)O)c2)cc1 [Compound 143]
IC50 (KDR; Table 21): 760 nM
melting point: 149 to 153 °C

CCCCCCCCCCCCCCCCCCNc1ccc(CCC(=O)Nc2ccc(SC)c(C(=O)O)c2)cc1 [Compound 164]
IC50 (KDR; Table 21): 570 nM
melting point: 151 to 158 °C

CCCCCCCCCCCCCCCCCCOc1ccc(CCC(=O)Nc2cc(C(=O)O)ccc2Sc2cccc(C(=O)O)c2)cc1 [Compound 43]
IC50 (KDR; Table 20): 660 nM
melting point: 246 to 248 °C

CCCCCCCCCCCCCCCCCCOc1ccc(CCC(=O)Nc2ccc(SC)c(C(=O)O)c2)cc1 [Compound 115]
IC50 (KDR; Table 21): 150 nM
melting point: 185 to 194 °C

CCCCCCCCCCCCCCCCCCOc1ccc(CCC(=O)N(C)c2ccc(Oc3ccc(C(=O)OC)cc3)c(C(=O)OC)c2)cc1 [Compound 22]
melting point: 60 to 62 °C

CCCCCCCCCCCCCCCCCCOc1ccc(CCC(=O)Nc2cc(C(=O)O)ccc2SCCC)cc1 [Compound 147]
IC50 (KDR; Table 21): 570 nM
melting point: 150 to 152 °C

CCCCCCCCCCCCCCCCCCOc1ccc(CC(=O)N(C)c2ccc(SCC)c(C(=O)O)c2)cc1 [Compound 154]
IC50 (KDR; Table 21): 500 nM
melting point: 87 to 88.5 °C

CCCCCCCCCCCCCCCCCCOc1ccc(CCC(=O)Nc2ccc(Sc3ccc(C(=O)O)cn3)c(C(=O)O)c2)cc1 [Compound 44]
IC50 (KDR; Table 20): 910 nM
melting point: 221 to 223 °C

CCCCCCCCCCNC(=O)[C@H](CC(=O)O)NC(=O)CCCOc1ccc(CCC(=O)Nc2ccc(SC)c(C(=O)OC)c2)cc1 [Compound 105]
melting point: 165 to 167 °C

CCCCCCCCCCCCCCCCCC(=O)Nc1cccc(CC(=O)Nc2ccc(SC)c(C(=O)O)c2)c1 [Compound 131]
IC50 (KDR; Table 21): 310 nM
melting point: 224 to 228 °C

CCCCCCCCCCCCCCCCCCOc1ccc(CCC(=O)N(CC(=O)O)c2ccc(SC)c(C(=O)OC)c2)cc1 [Compound 102]
melting point: 102 to 106 °C

CCCCCCCCCCCCCCCCCCCCOc1ccc(CCC(=O)Nc2ccc(SC)c(C(=O)O)c2)cc1 [Compound 117]
IC50 (KDR; Table 21): 320 nM
melting point: 211 to 213 °C

CCCCCCCCCCCCCCCCCCOc1ccc(CCC(=O)Nc2ccc(Sc3cccc(C(=O)O)c3)c(C(=O)O)c2)cc1 [Compound 42]
IC50 (KDR; Table 20): 450 nM
melting point: 194 to 198 °C

CCCCCCCCCCCCCCCCCCCCCCOc1ccc(CCC(=O)Nc2ccc(SC)c(C(=O)O)c2)cc1 [Compound 118]
IC50 (KDR; Table 21): 1580 nM
melting point: 209 to 212 °C

CCCCCCCCCCCCCCCCCCOc1ccc(CCC(=O)N(CC)c2ccc(SC)c(C(=O)O)c2)cc1 [Compound 149]
IC50 (KDR; Table 21): 140 nM
melting point: 108 to 110 °C

CCCCCCCCCCCCCCCCCCOc1ccc(CCC(=O)Nc2ccc(Oc3ccccc3C(=O)O)c(C(=O)O)c2)cc1 [Compound 29]
IC50 (KDR; Table 20): 1190 nM
melting point: 184 to 186 °C

CCCCCCCCCCCCCCCCCCOc1ccc(CC(=O)N(C)c2ccc(SCCCO)c(C(=O)O)c2)cc1 [Compound 162]
IC50 (KDR; Table 21): 1160 nM
melting point: 104.5 to 106.5 °C

CCCCCCCCCCOc1ccc(OCCCCCCCCCC(=O)Nc2ccc(SC)c(C(=O)O)c2)cc1 [Compound 137]
IC50 (KDR; Table 21): 460 nM
melting point: 185 to 188 °C

CCCCCCCCCCCCCCCCCCOc1ccc(CCC(=O)N(CC2CC2)c2ccc(SC)c(C(=O)O)c2)cc1 [Compound 150]
IC50 (KDR; Table 21): 590 nM
melting point: 126 to 128 °C

CCCCCCCCCCCCCCCCCCOc1ccc(CCC(=O)N(Cc2ccccc2)c2ccc(SC)c(C(=O)O)c2)cc1 [Compound 151]
IC50 (KDR; Table 21): 800 nM
melting point: 127 to 129 °C

CCCCCCCCCCCCCCCCCCOc1ccc(CC(=O)N(C)c2ccc(SCCO)c(C(=O)OC)c2)cc1 [Compound 109]
melting point: 92.5 to 94 °C

CCCCCCCCCCCCCCCCCCOc1ccc(OCC(=O)Nc2ccc(SC)c(C(=O)O)c2)cc1 [Compound 133]
IC50 (KDR; Table 21): 160 nM
melting point: 165 to 169 °C

CCCCCCCCCCCCCCCCCCOc1ccc(CCC(=O)Nc2ccc(Sc3ccc(C(=O)O)cc3)c(C(=O)O)c2)cc1 [Compound 41]
IC50 (KDR; Table 20): 370 nM
melting point: 198 to 203 °C

CCCCCCCCCCCCCCCCCCOc1ccc(CCC(=O)Nc2ccc(Oc3ccc4cc(C(=O)O)ccc4c3)c(C(=O)O)c2)cc1 [Compound 35]
IC50 (KDR; Table 20): 200 nM
melting point: 215 to 225 °C

CCCCCCCCCCCCCCCCCCOc1ccc(CC(=O)N(C)c2ccc(SCCO)c(C(=O)O)c2)cc1 [Compound 161]
IC50 (KDR; Table 21): 1300 nM
melting point: 114 to 117.5 °C

CCCCCCCCCCCCCCCCCCOc1ccc(CCC(=O)N(C)c2ccc(SC)c(C(=O)OC)c2)cc1 [Compound 90]
melting point: 65.5 to 66.5 °C

CCCCCCCCOc1ccc(OCCCCCCCCCCCC(=O)Nc2ccc(SC)c(C(=O)O)c2)cc1 [Compound 138]
IC50 (KDR; Table 21): 430 nM
melting point: 180 to 185 °C

CCCCCCCCCCCCCCCCCC(=O)Nc1ccccc1CC(=O)Nc1ccc(SC)c(C(=O)O)c1 [Compound 132]
IC50 (KDR; Table 21): 1660 nM
melting point: 247 to 250 °C

CCCCCCCCCCCCCCCCCCOc1ccc(CCC(=O)Nc2ccc(Oc3ccc(CCC(=O)O)cc3)c(C(=O)O)c2)cc1 [Compound 33]
IC50 (KDR; Table 20): 260 nM
melting point: 156 to 160 °C

CCCCCCCCCCCCCCCCCCOc1ccc(CCC(=O)Nc2ccc(Oc3ccc(CC(=O)O)cc3)c(C(=O)O)c2)cc1 [Compound 31]
IC50 (KDR; Table 20): 1230 nM
melting point: 170 to 173 °C

CCCCCCCCCCCCCCCCCCOc1ccc(CCC(=O)Nc2ccc(Oc3cccc(CC(=O)O)c3)c(C(=O)O)c2)cc1 [Compound 32]
IC50 (KDR; Table 20): 930 nM
melting point: 163 to 167 °C

CCCCCCCCCCCCCCCCCCOc1ccc(CC(=O)N(C)c2ccc(SC)c(C(=O)OC)c2)cc1 [Compound 91]
melting point: 60 to 69 °C

CCCCCCCCCCCCCCCCCCOc1ccc(CCC(=O)Nc2cc(C(=O)O)ccc2SCC)cc1 [Compound 146]
IC50 (KDR; Table 21): 630 nM
melting point: 174 to 177 °C

CCCCCCCCCCCCCCCCCCOc1ccc(CCC(=O)Nc2ccc(Oc3ccc(/C=C/C(=O)O)cc3)c(C(=O)O)c2)cc1 [Compound 34]
IC50 (KDR; Table 20): 340 nM
melting point: 200 to 208 °C

CCCCCCCCCCCCCCCCCCOc1ccc(NCC(=O)Nc2ccc(SC)c(C(=O)O)c2)cc1 [Compound 163]
IC50 (KDR; Table 21): 410 nM
melting point: 163.5 to 169.5 °C

CCCCCCCCCCCCCCCCCCOc1ccc(CCC(=O)Nc2ccc(Nc3cccc(C(=O)O)c3)c(C(=O)O)c2)cc1 [Compound 46]
IC50 (KDR; Table 20): 400 nM
melting point: 235 to 240 °C

CCCCCCCCCCCCCCCCCCOc1ccc(CCC(=O)Nc2cc(C(=O)O)ccc2Oc2cccc(C(=O)O)c2)cc1 [Compound 36]
IC50 (KDR; Table 20): 1270 nM
melting point: 212 to 216 °C

CCCCCCCCCCCCCCCCCCOc1ccc(C=CC(=O)N(C)c2ccc(SC)c(C(=O)O)c2)cc1 [Compound 153]
IC50 (KDR; Table 21): 250 nM
melting point: 156 to 157 °C

CCCCCCCCCCCCCCCCCCOc1ccc(CCC(=O)Nc2ccc([S+](C)[O-])c(C(=O)OC)c2)cc1 (stereo not drawn) [Compound 106]
melting point: 65 to 67 °C

CCCCCCCCCCCCCCCCOc1ccc(CC(=O)Nc2ccc(SC)c(C(=O)O)c2)cc1 [Compound 127]
IC50 (KDR; Table 21): 1160 nM
melting point: 200 to 205 °C

CCCCCCCCCCCCCCCCCCOc1ccc(CCC(=O)Nc2cc(C(=O)O)ccc2SC)cc1 [Compound 145]
IC50 (KDR; Table 21): 1290 nM
melting point: 216 to 219 °C

CCCCCCCCCCCCCCCCCCOc1ccc(CCC(=O)Nc2cc(C(=O)O)ccc2Oc2ccc3cc(C(=O)O)ccc3c2)cc1 [Compound 38]
IC50 (KDR; Table 20): 710 nM
melting point: 214 to 219 °C

CCCCCCCCCCCCCCCCCC(=O)Nc1ccc(CC(=O)Nc2ccc(SC)c(C(=O)O)c2)cc1 [Compound 130]
IC50 (KDR; Table 21): 230 nM
melting point: 214 to 217 °C

CCCCCCCCCCCCCCCCCCOc1ccc(CC(=O)N(C)c2ccc(SCCC)c(C(=O)O)c2)cc1 [Compound 155]
IC50 (KDR; Table 21): 670 nM
melting point: 76 to 80 °C

CCCCCCCCCCCCCCCCCCOc1ccc(CCC(=O)Nc2cc(C(=O)O)ccc2SCc2ccccc2)cc1 [Compound 148]
IC50 (KDR; Table 21): 930 nM
melting point: 178 to 181 °C

CCCCCCCCCCCCCCCCCCOc1ccc(CCC(=O)Nc2ccc(Nc3ccccc3C(=O)O)c(C(=O)O)c2)cc1 [Compound 47]
IC50 (KDR; Table 20): 940 nM
melting point: 247 to 252 °C
